According to ChEMBL document CHEMBL1156502, “Stabilized immune modulatory RNA compounds as agonists of Toll-like receptors 7 and 8” (Proc Natl Acad Sci U S A, 2007):
The source made the active and inactive calls. The calls are words filed in the database; no cut-off is given here.

What was measured:
[1] = Stability in 1% human serum assessed as full length product after 10 mins; assay type: ADME, cell-free; settings: read-out: Stability
[2] = molecular target: T1, Toll-like receptor 8 (Homo sapiens) (UniProt Q9NR97); assay: Activation of human TLR8 expressed in HEK293 cells assessed as increase in NF-kappaB activation at 100 ug/ml by SEAP assay; assay type: cell-based
T1 sequence (whole entry): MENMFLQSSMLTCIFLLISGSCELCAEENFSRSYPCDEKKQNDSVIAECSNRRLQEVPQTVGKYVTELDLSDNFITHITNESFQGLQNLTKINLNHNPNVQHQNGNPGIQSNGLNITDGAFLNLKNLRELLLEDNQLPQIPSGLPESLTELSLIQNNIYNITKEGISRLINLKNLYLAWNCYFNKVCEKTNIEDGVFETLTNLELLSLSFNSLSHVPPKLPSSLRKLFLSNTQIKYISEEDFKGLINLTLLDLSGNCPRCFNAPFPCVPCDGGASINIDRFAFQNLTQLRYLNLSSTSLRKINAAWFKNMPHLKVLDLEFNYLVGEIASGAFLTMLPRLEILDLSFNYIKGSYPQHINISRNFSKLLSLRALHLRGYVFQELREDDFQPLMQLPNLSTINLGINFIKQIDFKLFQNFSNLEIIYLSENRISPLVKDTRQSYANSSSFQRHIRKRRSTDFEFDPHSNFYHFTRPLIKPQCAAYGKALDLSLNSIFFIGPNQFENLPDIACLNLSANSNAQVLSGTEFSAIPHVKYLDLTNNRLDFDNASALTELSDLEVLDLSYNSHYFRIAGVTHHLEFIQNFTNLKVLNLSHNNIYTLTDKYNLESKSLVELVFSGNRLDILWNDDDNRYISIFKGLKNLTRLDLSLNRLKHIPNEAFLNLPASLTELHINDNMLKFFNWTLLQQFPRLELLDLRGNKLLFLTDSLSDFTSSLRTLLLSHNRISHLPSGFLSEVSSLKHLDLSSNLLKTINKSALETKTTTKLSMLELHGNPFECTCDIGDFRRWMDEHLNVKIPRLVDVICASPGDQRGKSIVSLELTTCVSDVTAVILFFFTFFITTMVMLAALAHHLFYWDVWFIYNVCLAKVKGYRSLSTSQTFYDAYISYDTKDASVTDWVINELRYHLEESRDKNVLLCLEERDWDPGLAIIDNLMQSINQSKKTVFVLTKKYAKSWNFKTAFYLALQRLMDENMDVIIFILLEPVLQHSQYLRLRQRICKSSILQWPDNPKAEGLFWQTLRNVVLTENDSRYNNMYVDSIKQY

[3] = molecular target: T2, Toll-like receptor 7 (Homo sapiens) (UniProt Q9NYK1); assay: Activation of human TLR7 expressed in HEK293 cells assessed as increase in NF-kappaB activation at 100 ug/ml by SEAP assay; assay type: cell-based
T2 sequence (whole entry): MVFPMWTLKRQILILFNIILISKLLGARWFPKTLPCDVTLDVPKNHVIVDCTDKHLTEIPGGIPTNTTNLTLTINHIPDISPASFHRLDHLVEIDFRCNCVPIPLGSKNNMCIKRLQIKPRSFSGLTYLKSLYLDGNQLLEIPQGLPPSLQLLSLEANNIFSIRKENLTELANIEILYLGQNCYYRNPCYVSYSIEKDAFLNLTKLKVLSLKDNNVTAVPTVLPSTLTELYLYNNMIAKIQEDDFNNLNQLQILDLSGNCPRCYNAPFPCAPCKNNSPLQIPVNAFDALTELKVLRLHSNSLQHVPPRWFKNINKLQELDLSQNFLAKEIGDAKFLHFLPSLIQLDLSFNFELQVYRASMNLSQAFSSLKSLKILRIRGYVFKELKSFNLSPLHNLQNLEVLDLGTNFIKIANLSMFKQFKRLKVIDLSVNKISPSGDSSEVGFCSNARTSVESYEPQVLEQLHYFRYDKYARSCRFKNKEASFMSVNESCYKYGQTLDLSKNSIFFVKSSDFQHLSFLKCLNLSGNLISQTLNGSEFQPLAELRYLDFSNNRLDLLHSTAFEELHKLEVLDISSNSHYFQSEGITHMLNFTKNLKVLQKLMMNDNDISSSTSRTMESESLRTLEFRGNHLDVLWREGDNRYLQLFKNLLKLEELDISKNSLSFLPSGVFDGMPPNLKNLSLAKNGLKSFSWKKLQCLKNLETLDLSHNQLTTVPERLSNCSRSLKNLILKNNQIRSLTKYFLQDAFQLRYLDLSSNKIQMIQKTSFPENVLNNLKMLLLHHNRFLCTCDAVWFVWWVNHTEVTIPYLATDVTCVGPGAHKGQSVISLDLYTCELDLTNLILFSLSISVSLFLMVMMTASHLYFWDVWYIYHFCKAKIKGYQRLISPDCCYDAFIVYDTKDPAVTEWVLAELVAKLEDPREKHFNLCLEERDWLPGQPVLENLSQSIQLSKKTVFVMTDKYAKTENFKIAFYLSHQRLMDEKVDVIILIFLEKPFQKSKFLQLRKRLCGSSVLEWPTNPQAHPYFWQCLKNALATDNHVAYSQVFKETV

remaining at 10 min [1]	Activity [2]	Activity [3]	SMILES
94%	Active	inactive	Nc1nc2c(ncn2[C@@H]2O[C@H](COP(O)(=S)O[C@H]3[C@@H](O)[C@H](n4ccc(=O)[nH]c4=O)O[C@@H]3COP(O)(=S)O[C@H]3[C@@H](O)[C@H](n4ccc(=O)[nH]c4=O)O[C@@H]3COP(O)(=S)O[C@H]3[C@@H](O)[C@H](n4ccc(=O)[nH]c4=O)O[C@@H]3COP(O)(=S)O[C@H]3[C@@H](O)[C@H](n4cnc5c(=O)[nH]c(N)nc54)O[C@@H]3COP(O)(=S)O[C@H]3[C@@H](O)[C@H](n4ccc(=O)[nH]c4=O)O[C@@H]3COP(O)(=S)O[C@H]3[C@@H](O)[C@H](n4ccc(=O)[nH]c4=O)O[C@@H]3COP(O)(=S)O[C@H]3[C@@H](O)[C@H](n4cnc5c(=O)[nH]c(N)nc54)O[C@@H]3COP(O)(=S)O[C@H]3[C@@H](O)[C@H](n4cnc5c(=O)[nH]c(N)nc54)O[C@@H]3COP(O)(=S)O[C@H]3[C@@H](O)[C@H](n4ccc(=O)[nH]c4=O)O[C@@H]3COP(O)(=S)O[C@H]3[C@@H](O)[C@H](n4ccc(=O)[nH]c4=O)O[C@@H]3CO)[C@@H](OP(O)(=S)OCC(O)COP(O)(=S)O[C@H]3[C@@H](O)[C@H](n4cnc5c(=O)[nH]c(N)nc54)O[C@@H]3COP(O)(=S)O[C@H]3[C@@H](O)[C@H](n4ccc(=O)[nH]c4=O)O[C@@H]3COP(O)(=S)O[C@H]3[C@@H](O)[C@H](n4ccc(=O)[nH]c4=O)O[C@@H]3COP(O)(=S)O[C@H]3[C@@H](O)[C@H](n4ccc(=O)[nH]c4=O)O[C@@H]3COP(O)(=S)O[C@H]3[C@@H](O)[C@H](n4cnc5c(=O)[nH]c(N)nc54)O[C@@H]3COP(O)(=S)O[C@H]3[C@@H](O)[C@H](n4ccc(=O)[nH]c4=O)O[C@@H]3COP(O)(=S)O[C@H]3[C@@H](O)[C@H](n4ccc(=O)[nH]c4=O)O[C@@H]3COP(O)(=S)O[C@H]3[C@@H](O)[C@H](n4cnc5c(=O)[nH]c(N)nc54)O[C@@H]3COP(O)(=S)O[C@H]3[C@@H](O)[C@H](n4cnc5c(=O)[nH]c(N)nc54)O[C@@H]3COP(O)(=S)O[C@H]3[C@@H](O)[C@H](n4ccc(=O)[nH]c4=O)O[C@@H]3COP(O)(=S)O[C@H]3[C@@H](O)[C@H](n4ccc(=O)[nH]c4=O)O[C@@H]3CO)[C@H]2O)c(=O)[nH]1 (some centres undefined)
66%	Active	inactive	Nc1ccn([C@@H]2O[C@H](COP(O)(=S)O[C@H]3[C@@H](O)[C@H](n4ccc(N)nc4=O)O[C@@H]3COP(O)(=S)O[C@H]3[C@@H](O)[C@H](n4cnc5c(=O)[nH]c(N)nc54)O[C@@H]3COP(O)(=S)O[C@H]3[C@@H](O)[C@H](n4ccc(=O)[nH]c4=O)O[C@@H]3COP(O)(=S)O[C@H]3[C@@H](O)[C@H](n4ccc(N)nc4=O)O[C@@H]3COP(O)(=S)O[C@H]3[C@@H](O)[C@H](n4cnc5c(=O)[nH]c(N)nc54)O[C@@H]3COP(O)(=S)O[C@H]3[C@@H](O)[C@H](n4ccc(=O)[nH]c4=O)O[C@@H]3CO)[C@@H](OP(O)(=S)OC[C@H]3O[C@@H](n4ccc(=O)[nH]c4=O)[C@H](O)[C@@H]3OP(O)(=S)OC[C@H]3O[C@@H](n4ccc(=O)[nH]c4=O)[C@H](O)[C@@H]3OP(O)(=S)OC[C@H]3O[C@@H](n4ccc(=O)[nH]c4=O)[C@H](O)[C@@H]3OP(O)(=S)OC[C@H]3O[C@@H](n4cnc5c(=O)[nH]c(N)nc54)[C@H](O)[C@@H]3OP(O)(=S)OCC(O)COP(O)(=S)O[C@H]3[C@@H](O)[C@H](n4cnc5c(=O)[nH]c(N)nc54)O[C@@H]3COP(O)(=S)O[C@H]3[C@@H](O)[C@H](n4ccc(=O)[nH]c4=O)O[C@@H]3COP(O)(=S)O[C@H]3[C@@H](O)[C@H](n4ccc(=O)[nH]c4=O)O[C@@H]3COP(O)(=S)O[C@H]3[C@@H](O)[C@H](n4ccc(=O)[nH]c4=O)O[C@@H]3COP(O)(=S)O[C@H]3[C@@H](O)[C@H](n4ccc(N)nc4=O)O[C@@H]3COP(O)(=S)O[C@H]3[C@@H](O)[C@H](n4ccc(N)nc4=O)O[C@@H]3COP(O)(=S)O[C@H]3[C@@H](O)[C@H](n4cnc5c(=O)[nH]c(N)nc54)O[C@@H]3COP(O)(=S)O[C@H]3[C@@H](O)[C@H](n4ccc(=O)[nH]c4=O)O[C@@H]3COP(O)(=S)O[C@H]3[C@@H](O)[C@H](n4ccc(N)nc4=O)O[C@@H]3COP(O)(=S)O[C@H]3[C@@H](O)[C@H](n4cnc5c(=O)[nH]c(N)nc54)O[C@@H]3COP(O)(=S)O[C@H]3[C@@H](O)[C@H](n4ccc(=O)[nH]c4=O)O[C@@H]3CO)[C@H]2O)c(=O)n1 (some centres undefined)
82%	Active	inactive	Nc1ccn([C@@H]2O[C@H](COP(O)(=S)O[C@H]3[C@@H](O)[C@H](n4cnc5c(=O)[nH]c(N)nc54)O[C@@H]3COP(O)(=S)O[C@H]3[C@@H](O)[C@H](n4ccc(=O)[nH]c4=O)O[C@@H]3COCCCCCO)[C@@H](OP(O)(=S)OC[C@H]3O[C@@H](n4ccc(=O)[nH]c4=O)[C@H](O)[C@@H]3OP(O)(=S)OC[C@H]3O[C@@H](n4cnc5c(=O)[nH]c(N)nc54)[C@H](O)[C@@H]3OP(O)(=S)OC[C@H]3O[C@@H](n4ccc(N)nc4=O)[C@H](O)[C@@H]3OP(O)(=S)OC[C@H]3O[C@@H](n4ccc(=O)[nH]c4=O)[C@H](O)[C@@H]3OP(O)(=S)OC[C@H]3O[C@@H](n4ccc(=O)[nH]c4=O)[C@H](O)[C@@H]3OP(O)(=S)OC[C@H]3O[C@@H](n4cnc5c(=O)[nH]c(N)nc54)[C@H](O)[C@@H]3OP(O)(=S)OC[C@H]3O[C@@H](n4ccc(=O)[nH]c4=O)[C@H](O)[C@@H]3OP(O)(=S)OC[C@H]3O[C@@H](n4cnc5c(=O)[nH]c(N)nc54)[C@H](O)[C@@H]3OP(O)(=S)OCC(O)COP(O)(=S)O[C@H]3[C@@H](O)[C@H](n4cnc5c(=O)[nH]c(N)nc54)O[C@@H]3COP(O)(=S)O[C@H]3[C@@H](O)[C@H](n4ccc(=O)[nH]c4=O)O[C@@H]3COP(O)(=S)O[C@H]3[C@@H](O)[C@H](n4cnc5c(=O)[nH]c(N)nc54)O[C@@H]3COP(O)(=S)O[C@H]3[C@@H](O)[C@H](n4ccc(=O)[nH]c4=O)O[C@@H]3COP(O)(=S)O[C@H]3[C@@H](O)[C@H](n4ccc(=O)[nH]c4=O)O[C@@H]3COP(O)(=S)O[C@H]3[C@@H](O)[C@H](n4ccc(N)nc4=O)O[C@@H]3COP(O)(=S)O[C@H]3[C@@H](O)[C@H](n4cnc5c(=O)[nH]c(N)nc54)O[C@@H]3COP(O)(=S)O[C@H]3[C@@H](O)[C@H](n4ccc(=O)[nH]c4=O)O[C@@H]3COP(O)(=S)O[C@H]3[C@@H](O)[C@H](n4ccc(N)nc4=O)O[C@@H]3COP(O)(=S)O[C@H]3[C@@H](O)[C@H](n4cnc5c(=O)[nH]c(N)nc54)O[C@@H]3COP(O)(=S)O[C@H]3[C@@H](O)[C@H](n4ccc(=O)[nH]c4=O)O[C@@H]3COCCCCCO)[C@H]2O)c(=O)n1 (some centres undefined)
